Assay results published in article PMC5218480 (PLoS ONE, 2017).

Test system: MV-4-11 cells
Assay: Gene expression microarray analysis (Affymetrix PrimeView) and GSEA
Format: cell-based, human
Set-up: RFU PODN (11730768_x_at) / Fold change /veh PODN (11730768_x_at) / RFU LINC00158 (11744669_a_at) / Fold change /veh LINC00158 (11744669_a_at) / RFU DUSP10 (11751237_a_at) / Fold change /veh DUSP10 (11751237_a_at) / RFU ID3 (11757404_x_at) / Fold change /veh ID3 (11757404_x_at) / RFU PLEKHG5 (11737974_s_at) / Fold change /veh PLEKHG5 (11737974_s_at) / RFU LRRC4B (11730491_at) / Fold change /veh LRRC4B (11730491_at) / RFU GIMAP4 (11747438_a_at) / Fold change /veh GIMAP4 (11747438_a_at) / RFU KRT8 (11758183_x_at) / Fold change /veh KRT8 (11758183_x_at) / RFU CNN1 (11734310_a_at) / Fold change /veh CNN1 (11734310_a_at) / RFU VPS37D (11726825_at) / Fold change /veh VPS37D (11726825_at) / RFU C10orf10 (11716522_x_at) / Fold change /veh C10orf10 (11716522_x_at) / RFU KIR2DL2 /// KIR2DL4 /// KIR2DL5A /// KIR2DL5B /// KIR2DS1 /// KIR2DS2 /// KIR2DS3 /// KIR2DS4 /// KIR3DL3 /// KIR3DL3 /// KIR3DS1 (11738374_at) / Fold change /veh KIR2DL2 /// KIR2DL4 /// KIR2DL5A /// KIR2DL5B /// KIR2DS1 /// KIR2DS2 /// KIR2DS3 /// KIR2DS4 /// KIR3DL3 /// KIR3DL3 /// KIR3DS1 (11738374_at) / RFU C1QL1 (11718748_at) / Fold change /veh C1QL1 (11718748_at) / RFU TMPRSS4 (11747572_a_at) / Fold change /veh TMPRSS4 (11747572_a_at) / RFU HAMP (11756126_x_at) / Fold change /veh HAMP (11756126_x_at) / RFU RNFT2 (11725882_a_at) / Fold change /veh RNFT2 (11725882_a_at) / RFU NR4A2 (11747474_a_at) / Fold change /veh NR4A2 (11747474_a_at) / RFU ABCC12 (11746883_a_at) / Fold change /veh ABCC12 (11746883_a_at) / RFU TMEM136 (11760407_x_at) / Fold change /veh TMEM136 (11760407_x_at) / RFU CLDN22 /// WWC2 (11732394_at) / Fold change /veh CLDN22 /// WWC2 (11732394_at) / RFU HLA-DPB1 (11760878_x_at) / Fold change /veh HLA-DPB1 (11760878_x_at) / RFU SPINT1 (11716480_a_at) / Fold change /veh SPINT1 (11716480_a_at) / RFU GAP43 (11754022_s_at) / Fold change /veh GAP43 (11754022_s_at) / RFU A4GNT (11735810_at) / Fold change /veh A4GNT (11735810_at) / RFU PRB3 (11715151_x_at) / Fold change /veh PRB3 (11715151_x_at) / RFU TUBB4B (11761932_at) / Fold change /veh TUBB4B (11761932_at) / RFU CAPN14 (11732068_a_at) / Fold change /veh CAPN14 (11732068_a_at) / RFU TMCC2 (11721928_a_at) / Fold change /veh TMCC2 (11721928_a_at) / RFU IRGQ (11745062_a_at) / Fold change /veh IRGQ (11745062_a_at) / RFU FAM174B (11720279_a_at) / Fold change /veh FAM174B (11720279_a_at) / RFU TMPRSS4 (11748680_a_at) / Fold change /veh TMPRSS4 (11748680_a_at) / RFU FAM212B (11763350_a_at) / Fold change /veh FAM212B (11763350_a_at) / RFU PLEKHG5 (11743358_a_at) / Fold change /veh PLEKHG5 (11743358_a_at) / RFU ZSCAN30 (11745921_a_at) / Fold change /veh ZSCAN30 (11745921_a_at) / RFU CMKLR1 (11741424_a_at) / Fold change /veh CMKLR1 (11741424_a_at) / RFU LOC101060620 /// MAPK8IP1 (11723275_at) / Fold change /veh LOC101060620 /// MAPK8IP1 (11723275_at) / RFU SPTSSB (11747773_x_at) / Fold change /veh SPTSSB (11747773_x_at) / RFU PRSS12 (11739890_at) / Fold change /veh PRSS12 (11739890_at) / RFU BIN1 (11741810_x_at) / Fold change /veh BIN1 (11741810_x_at) / RFU WNT11 (11732464_a_at) / Fold change /veh WNT11 (11732464_a_at) / RFU C10orf10 (11716521_a_at) / Fold change /veh C10orf10 (11716521_a_at) / RFU C5orf56 (11738089_at) / Fold change /veh C5orf56 (11738089_at) / RFU CYB561 (11721691_x_at) / Fold change /veh CYB561 (11721691_x_at) / RFU ANKRD19P (11752326_a_at) / Fold change /veh ANKRD19P (11752326_a_at) / RFU OR2T12 /// OR2T33 /// OR2T8 (11738714_s_at) / Fold change /veh OR2T12 /// OR2T33 /// OR2T8 (11738714_s_at) / RFU VCAN (11748164_a_at) / Fold change /veh VCAN (11748164_a_at) / RFU JSRP1 (11732532_at) / Fold change /veh JSRP1 (11732532_at) / RFU KRTAP10-11 (11738290_x_at) / Fold change /veh KRTAP10-11 (11738290_x_at) / RFU MYO3A (11730013_a_at) / Fold change /veh MYO3A (11730013_a_at) / RFU EBF3 (11725865_a_at) / Fold change /veh EBF3 (11725865_a_at) / RFU CAMK2N1 (11719241_x_at) / Fold change /veh CAMK2N1 (11719241_x_at) / RFU C5orf56 (11738088_a_at) / Fold change /veh C5orf56 (11738088_a_at) / RFU OLFML3 (11715873_a_at) / Fold change /veh OLFML3 (11715873_a_at) / RFU LOC100653217 /// NTM (11731650_a_at) / Fold change /veh LOC100653217 /// NTM (11731650_a_at) / RFU MAPK11 (11762145_a_at) / Fold change /veh MAPK11 (11762145_a_at) / RFU FIZ1 (11724087_x_at) / Fold change /veh FIZ1 (11724087_x_at) / RFU OASL (11726364_x_at) / Fold change /veh OASL (11726364_x_at) / RFU SOX15 (11748057_x_at) / Fold change /veh SOX15 (11748057_x_at) / RFU CD79A (11719716_a_at) / Fold change /veh CD79A (11719716_a_at) / RFU HIST1H1D (11736915_at) / Fold change /veh HIST1H1D (11736915_at) / RFU CASKIN2 (11723855_a_at) / Fold change /veh CASKIN2 (11723855_a_at) / RFU LOC730098 (11760151_x_at) / Fold change /veh LOC730098 (11760151_x_at) / RFU OR4N2 (11742367_at) / Fold change /veh OR4N2 (11742367_at) / RFU PRRT2 (11749266_a_at) / Fold change /veh PRRT2 (11749266_a_at) / RFU SNX32 (11753110_a_at) / Fold change /veh SNX32 (11753110_a_at) / RFU CDHR5 (11726645_a_at) / Fold change /veh CDHR5 (11726645_a_at) / RFU RCAN1 (11760418_a_at) / Fold change /veh RCAN1 (11760418_a_at) / RFU FAM167A (11723789_a_at) / Fold change /veh FAM167A (11723789_a_at) / RFU FAM26E (11764081_at) / Fold change /veh FAM26E (11764081_at) / RFU ISYNA1 (11749810_s_at) / Fold change /veh ISYNA1 (11749810_s_at) / RFU ACY1 (11761880_at) / Fold change /veh ACY1 (11761880_at) / RFU 11764098_at / Fold change /veh 11764098_at / RFU SAMD14 (11745864_x_at) / Fold change /veh SAMD14 (11745864_x_at) / RFU NPB (11741838_a_at) / Fold change /veh NPB (11741838_a_at) / RFU TMPRSS6 (11731388_a_at) / Fold change /veh TMPRSS6 (11731388_a_at) / RFU KRTAP10-2 (11738614_at) / Fold change /veh KRTAP10-2 (11738614_at) / RFU ARHGAP8 /// PRR5-ARHGAP8 (11727945_x_at) / Fold change /veh ARHGAP8 /// PRR5-ARHGAP8 (11727945_x_at) / RFU KRTAP5-7 /// NADSYN1 (11734609_at) / Fold change /veh KRTAP5-7 /// NADSYN1 (11734609_at) / RFU RASL12 (11751679_a_at) / Fold change /veh RASL12 (11751679_a_at) / RFU CDKN2B (11736163_a_at) / Fold change /veh CDKN2B (11736163_a_at) / RFU PRF1 (11729649_at) / Fold change /veh PRF1 (11729649_at) / RFU, ZNF638 /// ZNF638-IT1 / Fold change vs veh, ZNF638 /// ZNF638-IT1 / RFU, PANK3 / Fold change vs veh, PANK3 / RFU, SH3YL1 / Fold change vs veh, SH3YL1 / RFU, ZEB2 / Fold change vs veh, ZEB2 / RFU, NRIP1 / Fold change vs veh, NRIP1 / RFU, PTTG1IP / Fold change vs veh, PTTG1IP / RFU, CAPN2 / Fold change vs veh, CAPN2 / RFU, MED14 / Fold change vs veh, MED14 / RFU, SNORA58 / Fold change vs veh, SNORA58 / RFU, C1orf63 / Fold change vs veh, C1orf63 / RFU, LRRFIP1 / Fold change vs veh, LRRFIP1 / RFU, NDUFAF7 / Fold change vs veh, NDUFAF7 / RFU, SLC12A2 / Fold change vs veh, SLC12A2 / RFU, IBTK / Fold change vs veh, IBTK / RFU, ESF1 / Fold change vs veh, ESF1 / Fold change vs veh, TMEM50B / RFU, TAOK1 / Fold change vs veh, TAOK1 / RFU, ACBD3 / Fold change vs veh, ACBD3 / RFU, TMA16 / Fold change vs veh, TMA16 / RFU, RWDD3 / Fold change vs veh, RWDD3 / RFU, BCAT1 / Fold change vs veh, BCAT1 / RFU, EDEM3 / Fold change vs veh, EDEM3 / RFU, TMEM33 / Fold change vs veh, TMEM33 / RFU, WDR75 / Fold change vs veh, WDR75 / RFU, AHCTF1 / Fold change vs veh, AHCTF1 / RFU, TFRC / Fold change vs veh, TFRC / RFU, ZDHHC17 / Fold change vs veh, ZDHHC17 / RFU, NOM1 / Fold change vs veh, NOM1 / RFU, ARL8B / Fold change vs veh, ARL8B / RFU, ZBTB11 / Fold change vs veh, ZBTB11 / RFU, TAMM41 / Fold change vs veh, TAMM41 / RFU, KIAA1704 /// LOC100996395 / Fold change vs veh, KIAA1704 /// LOC100996395 / RFU, ING1 / Fold change vs veh, ING1 / RFU, TRMT61B / Fold change vs veh, TRMT61B / RFU, FUBP3 / Fold change vs veh, FUBP3 / RFU, TP53 / Fold change vs veh, TP53 / RFU, TNKS2 / Fold change vs veh, TNKS2 / RFU, ZFP14 / Fold change vs veh, ZFP14 / RFU, ACTR2 / Fold change vs veh, ACTR2 / RFU, PPP3R1 / Fold change vs veh, PPP3R1 / RFU, PIK3R1 / Fold change vs veh, PIK3R1 / RFU, HNRNPA1 / Fold change vs veh, HNRNPA1 / RFU, RNF170 / Fold change vs veh, RNF170 / RFU, ZNF28 / Fold change vs veh, ZNF28 / RFU, RNGTT / Fold change vs veh, RNGTT / RFU, OGT / Fold change vs veh, OGT / RFU, BRD1 / Fold change vs veh, BRD1 / RFU, MARS / Fold change vs veh, MARS / RFU, ZNF655 / Fold change vs veh, ZNF655 / RFU, FAHD1 / Fold change vs veh, FAHD1 / RFU, BDP1 / Fold change vs veh, BDP1 / RFU, LRRCC1 / Fold change vs veh, LRRCC1 / RFU, ARID1A / Fold change vs veh, ARID1A / RFU, ZNF146 / Fold change vs veh, ZNF146 / RFU, ZNF330 / Fold change vs veh, ZNF330 / RFU, GPN3 / Fold change vs veh, GPN3 / RFU, C9orf123 / Fold change vs veh, C9orf123 / RFU, N4BP2L2 / Fold change vs veh, N4BP2L2 / RFU, ARFIP1 / Fold change vs veh, ARFIP1 / RFU, FAM179B / Fold change vs veh, FAM179B / RFU, BCL10 / Fold change vs veh, BCL10 / RFU, UHRF1BP1L / Fold change vs veh, UHRF1BP1L / RFU, BET1 / Fold change vs veh, BET1 / RFU, CNOT2 / Fold change vs veh, CNOT2 / RFU, ZNF268 / Fold change vs veh, ZNF268 / Fold change vs veh, ZNF507 / RFU, DGCR2 / Fold change vs veh, DGCR2 / RFU, WDSUB1 / Fold change vs veh, WDSUB1 / Fold change vs veh, HSP90B1 /// MIR3652 / RFU, ADSS / Fold change vs veh, ADSS / RFU, GK / Fold change vs veh, GK / RFU, ZNF148 / Fold change vs veh, ZNF148 / RFU, TAF9 / Fold change vs veh, TAF9 / RFU, SLC1A5 / Fold change vs veh, SLC1A5 / RFU, SLMO2 / Fold change vs veh, SLMO2 / RFU, ABCC4 / Fold change vs veh, ABCC4 / RFU, LOC101060439 /// RAP1B / Fold change vs veh, LOC101060439 /// RAP1B / RFU, RFX7 / Fold change vs veh, RFX7 / RFU, GTPBP10 / Fold change vs veh, GTPBP10 / RFU, CNEP1R1 / Fold change vs veh, CNEP1R1 / RFU, BIVM-ERCC5 /// ERCC5 / Fold change vs veh, BIVM-ERCC5 /// ERCC5 / RFU, ILF3 / Fold change vs veh, ILF3 / RFU 11762660_at / Fold change /veh 11762660_at / RFU VCAN (11757783_s_at) / Fold change /veh VCAN (11757783_s_at) / RFU DDX43 (11728927_at) / Fold change /veh DDX43 (11728927_at) / RFU KRT8 (11758188_x_at) / Fold change /veh KRT8 (11758188_x_at) / RFU NKD1 (11759106_at) / Fold change /veh NKD1 (11759106_at) / RFU SRD5A1 (11742802_a_at) / Fold change /veh SRD5A1 (11742802_a_at) / RFU TPSAB1 /// TPSB2 (11721975_s_at) / Fold change /veh TPSAB1 /// TPSB2 (11721975_s_at) / RFU GSTM3 (11746129_a_at) / Fold change /veh GSTM3 (11746129_a_at) / RFU IL23R (11737362_x_at) / Fold change /veh IL23R (11737362_x_at) / RFU TMEM51 (11727254_a_at) / Fold change /veh TMEM51 (11727254_a_at) / RFU PIWIL2 (11732686_x_at) / Fold change /veh PIWIL2 (11732686_x_at) / RFU ORM1 (11744905_x_at) / Fold change /veh ORM1 (11744905_x_at) / RFU CCDC152 (11743942_at) / Fold change /veh CCDC152 (11743942_at) / RFU ECM1 (11717891_a_at) / Fold change /veh ECM1 (11717891_a_at) / RFU IL23R (11748794_a_at) / Fold change /veh IL23R (11748794_a_at) / RFU TNFAIP8L3 (11732012_x_at) / Fold change /veh TNFAIP8L3 (11732012_x_at) / RFU MBOAT4 (11741988_at) / Fold change /veh MBOAT4 (11741988_at) / RFU 11764193_at / Fold change /veh 11764193_at / RFU TMEM53 (11763286_at) / Fold change /veh TMEM53 (11763286_at) / RFU MAGEB2 (11727129_at) / Fold change /veh MAGEB2 (11727129_at) / RFU TMEM200A (11744735_a_at) / Fold change /veh TMEM200A (11744735_a_at) / RFU CCDC152 (11751479_a_at) / Fold change /veh CCDC152 (11751479_a_at) / RFU FAM211A (11726209_a_at) / Fold change /veh FAM211A (11726209_a_at) / RFU RGS16 (11746705_a_at) / Fold change /veh RGS16 (11746705_a_at) / RFU VCAN (11755009_s_at) / Fold change /veh VCAN (11755009_s_at) / RFU RHOB (11743442_s_at) / Fold change /veh RHOB (11743442_s_at) / RFU RGS16 (11720943_a_at) / Fold change /veh RGS16 (11720943_a_at) / RFU RGS16 (11720944_at) / Fold change /veh RGS16 (11720944_at) / RFU, VPS4B / Fold change vs veh, VPS4B / RFU, CREB1 / Fold change vs veh, CREB1 / RFU, DNAJC13 / Fold change vs veh, DNAJC13 / RFU, GNAQ / Fold change vs veh, GNAQ / RFU, CDK5R1 / Fold change vs veh, CDK5R1 / RFU, ZRANB3 / Fold change vs veh, ZRANB3 / RFU, CUL4A / Fold change vs veh, CUL4A / RFU, CCNY / Fold change vs veh, CCNY / RFU, UFL1 / Fold change vs veh, UFL1 / RFU, COG3 / Fold change vs veh, COG3 / RFU, DIAPH2 / Fold change vs veh, DIAPH2 / RFU, SKA2 / Fold change vs veh, SKA2 / RFU, AFF3 / Fold change vs veh, AFF3 / RFU, LMF1 / Fold change vs veh, LMF1 / RFU, IPO11 / Fold change vs veh, IPO11 / RFU, DFFB / Fold change vs veh, DFFB / RFU, FOXP1 / Fold change vs veh, FOXP1 / RFU, CARD8 / Fold change vs veh, CARD8 / RFU, STRN3 / Fold change vs veh, STRN3 / RFU, ADK / Fold change vs veh, ADK / RFU, RASSF2 / Fold change vs veh, RASSF2 / RFU, WIPF1 / Fold change vs veh, WIPF1 / RFU, LARP1B / Fold change vs veh, LARP1B / RFU, RASA1 / Fold change vs veh, RASA1 / RFU, RB1 / Fold change vs veh, RB1 / RFU, PPFIA1 / Fold change vs veh, PPFIA1 / RFU, MAT2A / Fold change vs veh, MAT2A / RFU, CCT5 / Fold change vs veh, CCT5 / RFU, WDR92 / Fold change vs veh, WDR92 / RFU, CUX1 / Fold change vs veh, CUX1 / RFU, TTC7A / Fold change vs veh, TTC7A / RFU, TMEM135 / Fold change vs veh, TMEM135 / RFU, DEPTOR / Fold change vs veh, DEPTOR / RFU, CPM / Fold change vs veh, CPM / RFU, DNAJB6 / Fold change vs veh, DNAJB6 / RFU, CACNA2D3 / Fold change vs veh, CACNA2D3 / RFU, DTX4 / Fold change vs veh, DTX4 / RFU, TFCP2 / Fold change vs veh, TFCP2 / RFU, GMCL1 /// GMCL1P1 / Fold change vs veh, GMCL1 /// GMCL1P1 / RFU, AEBP2 / Fold change vs veh, AEBP2 / RFU, SNHG1 /// SNORD22 /// SNORD25 /// SNORD26 /// SNORD27 /// SNORD28 /// SNORD29 /// SNORD31 / Fold change vs veh, SNHG1 /// SNORD22 /// SNORD25 /// SNORD26 /// SNORD27 /// SNORD28 /// SNORD29 /// SNORD31 / Fold change (Aza/veh), C12orf56 (ProbeSet 11735607_a_at) / Fold change (ACY-1035/veh), C12orf56 (ProbeSet 11735607_a_at) / Fold change (Aza/veh), FGFR1OP (ProbeSet 11751329_s_at) / Fold change (ACY-1035/veh), FGFR1OP (ProbeSet 11751329_s_at) / Fold change (Aza/veh), VPS36 (ProbeSet 11739960_a_at) / Fold change (ACY-1035/veh), VPS36 (ProbeSet 11739960_a_at) / RFU SYPL1 (11715823_x_at) / Fold change /veh SYPL1 (11715823_x_at) / RFU IGFBP7 (11715501_s_at) / Fold change /veh IGFBP7 (11715501_s_at) / RFU REEP3 (11722064_at) / Fold change /veh REEP3 (11722064_at) / RFU IGLL1 (11728026_x_at) / Fold change /veh IGLL1 (11728026_x_at): dose or concentration left out as unconfirmed
Settings: ProbeSet 11749477_a_at; LIST B

Nc1ncn([C@@H]2O[C@H](CO)[C@@H](O)[C@H]2O)c(=O)n1 [azacitidine]
Fold change vs veh, EDEM3: 0.89
